Our source for the IC50 values is patent US9988378B2, “1 H-pyrazole and 4,5-disubstituted thiazole inhibitors of SYK” (Hoffmann-La Roche Inc., priority 2012, dated 2018).

One may read the IC50 as the midpoint of a concentration-inhibition curve.

One experiment concerns RAMOS. The experiment in a line: RAMOS_V2_IC50. It is filed as cell-based. The settings on record: Homo sapiens.
In experiment [1] the target is T1, recombinant human SYK360-635 (Homo sapiens, UniProt P43405).
T1 construct: truncated construct of Spleen Tyrosine Kinase aa 360-635; made in house
Kind of experiment: SYK kinase assay, 33P ATP filtration (ENZYME_FILTRATION_IC50). The experiment is classed as biochemical. To be noted: SYK aa 360-635 0.5 nM, ATP 20 μM, peptide 5 μM, 30° C. 15 min. On the procedure:
Determination of IC50 of Spleen Tyrosine Kinase (SYK) Inhibition:
SYK kinase assay is a standard kinase assay adapted to a 96 well plate format. This assay is performed in 96-well format for IC50 determination with […] which represented 10 half log dilutions and a 40 μL reaction volume. The assay measures the incorporation of radiolabeled ^33P ATP into an N-terminally biotinylated peptide substrate, derived from naturally occurring phosphoacceptor consensus sequence (Biotin-11aa DY*E). Phosphorylated products were detected upon termination of reactions with EDTA and the addition of Streptavidin coated beads. Representative results are in Table II above.
Assay plates: 96-well MultiScreen 0.65 um filter plates (Millipore Cat. No.: MADVNOB10) Streptavidin coated beads: Streptavidin Sepharose™, suspension 5.0 mL, in 50 mM EDTA/PBS diluted (1:100), (Amersham, Cat. No.: 17-5113-01)
Compounds: 10 mM in 100% dimethylsulfoxide (DMSO), final conc.: compound 0.003-100 uM in 10% DMSO
Enzyme: SYK RPA purified, truncated construct of Spleen Tyrosine Kinase aa 360-635, stock solution 1 mg/mL, MW: 31.2 KDa, final conc.:0.0005 μM.
Peptide 1: biotinylated peptide is derived from a naturally occurring phosphor-acceptor consensus sequence (Biotin-EPEGDYEEVLE), special order from QCB, stock solution 20 mM, final conc.: 5.0 μM.
ATP: Adenosine-5′-triphosphate 20 mM, (ROCHE Cat. No.: 93202720), final concentration: 20 μM
Buffer: HEPES: 2-Hydroxyethyl piperazine-2-ethanesulfonic acid (Sigma, Cat. No.: H-3375) final concentration: 50 mM HEPES pH7.5
BSA: Bovine Serum Albumin Fraction V, fatty acid free (Roche Diagnostics GmbH, Cat. No. 9100221) diluted to a final concentration of 0.1%
EDTA: EDTA stock solution 500 mM, (GIBCO, Cat. No.: 15575-038) final concentration: 0.1 mM
DTT: 1,4-Dithiothreitol (Roche Diagnostics GmbH, Cat. No.: 197777), final conc.: 1 mM MgCl2×6H2O: MERCK, Cat. No.: 105833.1000, final concentration: 10 mM
Assay Dilution Buffer (ADB): 50 mM HEPES, 0.1 mM EGTA, 0.1 mM Na Vanadate, 0.1 mM β-glycerophosphate, 10 mM MgCl2, 1 mM DTT, 0.1% BSA, pH 7.5
Bead wash buffer: 10 g/L PBS (Phosphate buffered saline) with 2M NaCl+1% phosphoric acid.
In 40 μL volume, 26 μL of ADB diluted, purified recombinant human SYK360-635 [0.5 nM] was mixed with 4 μL of 10× concentrations of the test compounds, [usually 100 μM-0.003 μM] in [10%] DMSO and the mixture was incubated for 10 min at RT.
The kinase reaction was initiated by the addition of 10 μL 4× substrate cocktail containing the DYE peptide substrate [0 or 5 μM], ATP [20 μM] and ^33PγATP [2 μCi/rxn]. After incubation at 30° C. for 15 min, the reaction was terminated by the transfer of 25 μL pf the reaction sample to a 96 well 0.65 μm Millipore MADVNOB membrane/plate containing 200 μL 5 mM EDTA and 20% Streptavidine coated beads in PBS.
The unbound radionucleotides were washed under vacuum with 3×250 μL 2M NaCl; 2×250 μL 2M NaCl+1% phosphoric acid; 1×250 μL H2O. After the last wash membrane/plates were transferred to an adaptor plate, heat dried for 15 min at 60° C., and 50 μL scintillation cocktail was added to each well and 4 h later the amount of radioactivity was counted in a top counter.
The percent inhibition was calculated based on the uninhibited enzyme rate: % Inhibition=100/(1+(IC50/Inhibitor conc)^n)
The IC50 was calculated using a non-linear curve fit with XLfit software (ID Business Solution Ltd., Guilford, Surrey, UK).

Another experiment relates to human whole blood. The experiment in a line: IC50: human whole blood. It is filed as cell-based.

Regarding `CC(=O)OCC(C)(C)C(=O)Nc1c[nH]nc1-c1nc2ccccc2[nH]1` [Compound I-34, Acetic acid 2-[3-(1H-benzoimidazol-2-yl)-1H-pyrazol-4-ylcarbamoyl]-2-methyl-propyl ester], the IC50 with RAMOS is 6570 nM; in experiment [1], 278 nM; with human whole blood, 4170 nM.
For `CC(C)C(=O)Nc1c[nH]nc1-c1nc2ccccc2[nH]1` [Compound I-30, N-[3-(1H-Benzoimidazol-2-yl)-1H-pyrazoll-4-yl]-isobutyramide], the IC50 with RAMOS turned out to be 1020 nM; in experiment [1], 60 nM; in the experiment with human whole blood, 2290 nM.
Consider `O=C(NC1CCOCC1)c1c[nH]nc1-c1nc(-c2ccccc2)cs1` [Compound I-21, 3-(4-phenylthiazol-2-yl)-N-(tetrahydro-2H-pyran-4-yl)-1H-pyrazole-4-carboxamide], for which the concentration for half-maximal inhibition (IC50) in the experiment on RAMOS is 19100 nM; in experiment [1], 209 nM; in the experiment with human whole blood, greater than 50000 nM.
Consider `CC(C)(CO)NC(=O)c1c[nH]nc1-c1nc2ccccc2s1` [Compound I-7, 3-(benzo[d]thiazol-2-yl)-N-(1-hydroxy-2-methylpropan-2-yl)-1H-pyrazole-4-carboxamide], for which the values for the IC50 (in the experiment on RAMOS; in experiment [1]; with human whole blood) were 552 nM, 562 nM and 20400 nM, respectively.
Turning to `CC(C)(CO)C(=O)Nc1c[nH]nc1-c1nc2ccccc2[nH]1` [Compound I-35, N-[3-(1H-Benzoimidazol-2-yl)-1H-pyrazol-4-yl]-3-hydroxy-2,2-dimethyl-propionamide], the values for the IC50 (in the experiment with RAMOS; in experiment [1]; in the experiment with human whole blood) were 920 nM, 54.9 nM and 1920 nM, respectively.
Take `CC(C)NC(=O)c1c[nH]nc1-c1nc(-c2ccccc2)cs1` [Compound I-17, N-isopropyl-3-(4-phenylthiazol-2-yl)-1H-pyrazole-4-carboxamide]: the IC50 with RAMOS is 3540 nM; in experiment [1], 761 nM; with human whole blood, greater than 50000 nM.
Turning to `CC(C)(C)NC(=O)c1c[nH]nc1-c1nc(-c2ccccc2)cs1` [Compound I-16, N-tert-butyl-3-(4-phenylthiazol-2-yl)-1H-pyrazole-4-carboxamide], the IC50 in the experiment on RAMOS was 12200 nM; in experiment [1] it was 2410 nM; in the experiment with human whole blood, greater than 50000 nM.
With `C[C@@H](CO)NC(=O)c1c[nH]nc1-c1nc2ccccc2s1` [Compound I-12, (S)-3-(benzo[d]thiazol-2-yl)-N-(1-hydroxypropan-2-yl)-1H-pyrazole-4-carboxamide], the IC50 in the experiment with RAMOS came to 4070 nM; in experiment [1], 1690 nM; in the experiment on human whole blood, 13100 nM.
Consider `O=C(Nc1c[nH]nc1-c1nc2ccccc2[nH]1)C1CCOCC1` [Compound I-33, Tetrahydro-pyran-4-carboxylic acid [3-(1H-benzoimidazol-2-yl)-1H-pyrazol-4-yl]-amide], for which the IC50 with RAMOS came out at 3080 nM; in experiment [1], 105 nM; in the experiment on human whole blood, 2500 nM.
The like results for `CC(C)(C)NC(=O)c1c[nH]nc1-c1nc2c(s1)CCC2` [Compound I-18, N-tert-butyl-3-(5,6-dihydro-4H-cyclopenta[d]thiazol-2-yl)-1H-pyrazole-4-carboxamide] were, in that order, greater than 34100 nM, 6120 nM and greater than 50000 nM.
In the case of `O=C(Nc1c[nH]nc1-c1nc2ccccc2[nH]1)C1CCCC1` [Compound I-32, Cyclopentanecarboxylic acid [3-(1H-benzoimidazol-2-yl)-1H-pyrazol-4-yl]-amide], the IC50 is 615 nM in the experiment with RAMOS, 38.9 nM in experiment [1] and 5270 nM in the experiment with human whole blood.
Take `Cc1ccc2[nH]c(-c3ncsc3C(=O)NC(C)(C)C)nc2c1` [Compound I-29, 4-(5-Methyl-1H-benzoimidazol-2-yl)-thiazole-5-carboxylic acid tert-butylamide]: the IC50 in the experiment with RAMOS was 1520 nM; in experiment [1] it was 46.6 nM; in the experiment on human whole blood it was 10400 nM.
The like results for `CCOC(=O)c1c[nH]nc1-c1nc(-c2ccccc2)cs1` [Compound I-13, ethyl 3-(4-phenylthiazol-2-yl)-1H-pyrazole-4-carboxylate] were, in that order, greater than 34100 nM, greater than 10000 nM and greater than 50000 nM.
On to `CC(C)(C)NC(=O)c1c[nH]nc1-c1nc2ccccc2s1` [Compound I-8, 3-(benzo[d]thiazol-2-yl)-N-tert-butyl-1H-pyrazole-4-carboxamide], for which the results for the IC50 (in the experiment on RAMOS; in experiment [1]; with human whole blood) were 146 nM, 67 nM and 46700 nM, respectively.
Turning to `CC(C)(CO)NC(=O)c1c[nH]nc1-c1nc2ccccc2[nH]1` [Compound I-39, 3-(1H-Benzoimidazol-2-yl)-1H-pyrazole-4-carboxylic acid (2-hydroxy-1,1-dimethyl-ethyl)-amide], the IC50 with RAMOS is 986 nM; in the experiment on human whole blood, 2870 nM.
As for `CC(C)(C)C(=O)Nc1c[nH]nc1-c1nc2ccccc2[nH]1` [Compound I-31, N-[3-(1H-Benzoimidazol-2-yl)-1H-pyrazol-4-yl]-2,2-dimethyl-propionamide], the IC50 in the experiment with RAMOS amounted to 350 nM; in experiment [1], 21.4 nM; with human whole blood it was 2600 nM.
